Blank lines part the entries; values can stand above or below the compound they belong to.
Legend:
Assay type in all cases: biochemical
human G34 protein [1] = biological target: T1, human G34 protein (Homo sapiens, UniProt Q8NCR0); test: RI assay (divalent ion requirement)
T1 construct: made in house; host or cells: Sf21 insect cells (baculovirus, pFBIF-G34A)
T1 sequence (Q8NCR0 36-500): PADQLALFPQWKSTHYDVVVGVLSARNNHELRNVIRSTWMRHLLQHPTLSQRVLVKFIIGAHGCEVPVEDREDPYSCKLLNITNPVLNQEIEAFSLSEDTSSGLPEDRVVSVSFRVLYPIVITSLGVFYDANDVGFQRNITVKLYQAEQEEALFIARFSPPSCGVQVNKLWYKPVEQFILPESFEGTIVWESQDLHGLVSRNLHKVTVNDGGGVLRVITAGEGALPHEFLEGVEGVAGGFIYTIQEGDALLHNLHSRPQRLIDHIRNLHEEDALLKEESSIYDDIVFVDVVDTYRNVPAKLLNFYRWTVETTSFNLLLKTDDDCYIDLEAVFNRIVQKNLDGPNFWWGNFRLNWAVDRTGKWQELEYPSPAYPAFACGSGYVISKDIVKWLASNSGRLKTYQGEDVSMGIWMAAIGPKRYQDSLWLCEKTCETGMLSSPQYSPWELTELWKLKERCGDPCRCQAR

human G34 protein [2] = biological target: T1, human G34 protein; test: Acceptor substrate specificity to oligosaccharides; conditions: for % (radioactivity relative to Bz-β-GlcNAc set to 100%): 50 nmol substrate, HEPES pH 7.4, MnCl2 10 mM, 37° C. 2 hours
Excerpt: The following reaction system was used for examining the acceptor substrate specificity to oligosaccharides. The acceptor substrates used were pNp-α-Gal, oNp-β-Gal, Bz-α-GlcNAc, Bz-β-GlcNAc, Bz-α-GalNAc, pNp-β-GalNAc, pNp-α-Glc, pNp-β-Glc, pNp-β-GlcA, pNp-α-Fuc, pNp-α-Xyl, pNp-β-Xyl, pNp-α-Man, lactoside-Bz, Lac-ceramide, Gal-ceramide, paragloboside, globoside, Gal-β1-4 GalNAc-α-pNp, Gal-β1-3 GlcNAc-β-pNp, GlcNAc-[…] GlcNAc β-Bz, pNp-core1 (Gal-β1-3 GalNAc-α-pNp), pNp-core2 (Gal-β1-3 (GlcNAc-β1-6) GalNAc-α-pNp), pNp-core3 (GlcNAc-β1-3 GalNAc-α-pNp) and pNp-core6 (GlcNAc-β1-6 GalNAc-α-pNp). “Lac” represents a D-lactose residue.
Each reaction solution (final concentrations in parentheses) was prepared by adding each substrate (50 nmol), HEPES buffer (pH 7.4, 14 mM), Triton CF-54 (trade name) (0.3%), UDP-GalNAc (2 mM), MnCl2 (10 mM), UDP-[^3H]GlcNAc and 5 μl G34 enzyme solution, followed by dilution with H2O to a total volume of […].
(§1) The above reaction mixtures were each reacted at 37° C. for 2 hours. After completion of the reaction, 200 μl H2O was added and each mixture was lightly centrifuged to obtain the supernatant. The supernatant was passed through a Sep-Pak plus C18 Cartridge (Waters), which had been washed once with 1 ml methanol and twice with 1 ml H2O and then equilibrated, to allow the substrate and product in the supernatant to adsorb to the cartridge. After washing the cartridge twice with 1 ml H2O, the adsorbed substrate and product were eluted with 1 ml methanol. The eluate was mixed with 5 ml liquid scintillator ACSII (Amersham Biosciences) and measured for the amount of radiation with a scintillation counter (Beckman Coulter).
The results thus measured were compared assuming that the radioactivity obtained using Bz-β-GlcNAc as a substrate was set to 100% (see Table 5).

mouse G34 = biological target: T2, mouse G34 (Mus musculus, UniProt Q8BG28); test: Substrate specificity of β1,3-N-acetylgalactosamine transferase activity of mouse G34; conditions: for % (radioactivity relative to Bz-β-GlcNAc set to 100%): 10 nmol substrate, HEPES pH 7.4, MnCl2 10 mM, 37° C. 16 hours
T2 construct: made in house; host or cells: 293T cells transfected with pFLAG-CMV3-mG34A; purified from the supernatant
T2 sequence (Q8BG28 35-504): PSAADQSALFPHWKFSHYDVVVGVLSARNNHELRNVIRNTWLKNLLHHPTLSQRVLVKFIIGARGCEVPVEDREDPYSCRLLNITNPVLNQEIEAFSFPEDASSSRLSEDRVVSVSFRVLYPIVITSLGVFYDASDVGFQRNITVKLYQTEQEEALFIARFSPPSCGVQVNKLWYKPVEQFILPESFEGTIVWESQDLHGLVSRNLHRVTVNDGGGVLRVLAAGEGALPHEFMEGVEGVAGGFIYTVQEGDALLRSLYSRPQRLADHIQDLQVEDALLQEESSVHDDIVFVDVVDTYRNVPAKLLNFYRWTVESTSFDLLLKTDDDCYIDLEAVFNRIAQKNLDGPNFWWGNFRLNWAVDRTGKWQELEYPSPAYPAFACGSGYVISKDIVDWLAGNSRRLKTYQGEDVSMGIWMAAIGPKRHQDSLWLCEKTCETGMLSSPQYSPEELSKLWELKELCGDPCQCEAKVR
Excerpt: The following reaction system was used for examining mouse G34 for its substrate specificity in its β1,3-N-acetylgalactosamine transferase activity. In the reaction solutions shown below, each of the following was used at […] as an “acceptor substrate”: pNp-α-Gal, oNp-β-Gal, Bz-α-GlcNAc, Bz-β-GlcNAc, Bz-α-GalNAc, pNp-β-GalNAc, pNp-α-Glc, pNp-β-Glc, pNp-β-GlcA, pNp-α-Fuc, pNp-α-Xyl, pNp-β-Xyl, pNp-α-Man, lactoside-Bz, Lac-ceramide, Gal-ceramide, Gb3, globoside, Gal-β1-4GalNAc-α-pNp, Galβ1-3GlcNAc-β-Bz, GlcNAc-β1-4-GlcNAc-β-Bz, core1-pNp, core2-pNp, core3-pNp and core6-pNp (all purchased from SIGMA).
Each reaction solution was prepared as follows (final concentrations in parentheses): each substrate (10 nmol), HEPES (N-[2-hydroxyethyl]piperazine-N′-[2-ethanesulfonic acid]) (pH 7.4, 14 mM), MnCl2 (10 mM), Triton CF-54 (trade name) (0.3%), UDP-GalNAc (2 mM) and […] (40 nCi) were mixed and supplemented with 5 μl mouse G34 enzyme solution, followed by dilution with H2O to a total volume of 20 μl.
as §1, with “for 16” for “for 2”
The results thus measured were compared assuming that the radioactivity obtained using Bz-β-GlcNAc as a substrate was set to 100% (Table 11).

[3] = concentration 2.5 mM, acceptor Bz-β-GlcNAc, HEPES pH 7.4
[4] = concentration 5 mM, acceptor Bz-β-GlcNAc, HEPES pH 7.4
[5] = concentration 10 mM, acceptor Bz-β-GlcNAc, HEPES pH 7.4
[6] = concentration 20 mM, acceptor Bz-β-GlcNAc, HEPES pH 7.4

SMILES: [Cl-].[Cl-].[Co+2] [Co, CoCl2]
- DPM (human G34 protein [1]; concentration 2.5 mM): 10979.99 DPM
- DPM (human G34 protein [1]; concentration 5 mM): 9503.91 DPM
- DPM (human G34 protein [1]; concentration 10 mM): 10979.99 DPM
- DPM (human G34 protein [1]; concentration 20 mM): 8070.47 DPM
- DPM (human G34 protein [1]; concentration 40 mM): 7854.92 DPM

- increase in radioactivity (human G34 protein [2]): largest increase in radioactivity
- % (radioactivity relative to Bz-β-GlcNAc set to 100%) (human G34 protein [2]): 185%
- % (radioactivity relative to Bz-β-GlcNAc set to 100%) (mouse G34): 25%
SMILES: CC(=O)N[C@H]1[C@H](OC[C@H]2O[C@H](Oc3ccc([N+](=O)[O-])cc3)[C@H](NC(C)=O)[C@@H](O[C@@H]3O[C@H](CO)[C@H](O)[C@H](O)[C@H]3O)[C@H]2O)O[C@H](CO)[C@@H](O)[C@@H]1O [core2-pNp, Gal-β1-3-(GlcNAc-β1-6)GalNAc-α-pNp]

- DPM (human G34 protein [1]; [3]): 7260.09 DPM
- DPM (human G34 protein [1]; [4]): 8270.23 DPM
- DPM (human G34 protein [1]; [5]): 7748.77 DPM
- DPM (human G34 protein [1]; [6]): 7515.86 DPM
SMILES: [Cl][Mn][Cl] [Mn, MnCl2]

- % (radioactivity relative to Bz-β-GlcNAc set to 100%) (human G34 protein [2]): 8%
- % (radioactivity relative to Bz-β-GlcNAc set to 100%) (mouse G34): 14%
SMILES: CC(=O)NC1C(OC2C(O)C(CO)OC(Oc3ccc([N+](=O)[O-])cc3)C2NC(C)=O)OC(CO)C(O)C1O (stereo not drawn) [core3-pNp, GlcNAc-β1-3-GalNAc-α-pNp]

SMILES: O=C(O)CN(CCN(CC(=O)O)CC(=O)O)CC(=O)O [EDTA]
- DPM (human G34 protein [1]; pH 7.4): 149.32 DPM

- % (radioactivity relative to Bz-β-GlcNAc set to 100%) (mouse G34): 12%
SMILES: O=[N+]([O-])c1ccc(O[C@@H]2O[C@H](CO)[C@@H](O)[C@H](O)[C@H]2O)cc1 [pNp-β-Glc]

- DPM (human G34 protein [1]; [3]): 4800.03 DPM
- DPM (human G34 protein [1]; [4]): 8692.15 DPM
- DPM (human G34 protein [1]; [5]): 8980.56 DPM
- DPM (human G34 protein [1]; [6]): 6726.32 DPM
- DPM (human G34 protein [1]; concentration 40 mM, acceptor Bz-β-GlcNAc, HEPES pH 7.4): 5592.88 DPM
SMILES: [Cl-].[Cl-].[Mg+2] [Mg, MgCl2]

- % (radioactivity relative to Bz-β-GlcNAc set to 100%) (human G34 protein [2]): 29%
- % (radioactivity relative to Bz-β-GlcNAc set to 100%) (mouse G34): 10%
SMILES: CC(=O)N[C@H]1[C@H](OCc2ccccc2)O[C@H](CO)[C@@H](O[C@@H]2O[C@H](CO)[C@@H](O)[C@H](O)[C@H]2NC(C)=O)[C@@H]1O [GlcNAcβ1-4GlcNAc-β-Bz]

- % (radioactivity relative to Bz-β-GlcNAc set to 100%) (human G34 protein [2]): 19%
- % (radioactivity relative to Bz-β-GlcNAc set to 100%) (mouse G34): 18%
SMILES: CC(=O)N[C@H]1[C@@H](Oc2ccc([N+](=O)[O-])cc2)O[C@H](CO[C@@H]2O[C@H](CO)[C@@H](O)[C@H](O)[C@H]2NC(C)=O)[C@H](O)[C@@H]1O [core6-pNp, GlcNAc-β1-6-GalNAc-α-pNp]

- % (radioactivity relative to Bz-β-GlcNAc set to 100%) (human G34 protein [2]): 100%
- increase in radioactivity (mouse G34): largest increase in radioactivity
- % (radioactivity relative to Bz-β-GlcNAc set to 100%) (mouse G34): 100%
SMILES: CC(=O)N[C@H]1[C@H](OCc2ccccc2)O[C@H](CO)[C@@H](O)[C@@H]1O [Bz-β-GlcNAc]

- Mn-induced enhancement of the activity on addition of Cu (human G34 protein [1]): completely eliminated
SMILES: [Cu+2] [Cu]

From patent US8431365B2, “β1,3-N-acetyl-D-galactosamine transferase protein, nucleic acid encoding the same and method of examining canceration using the same” (National Institute of Advanced Industrial Science and …, priority 2003, dated 2013)
